In US12187713B2, “Immunomodulators, compositions and methods thereof” (Betta Pharmaceuticals Co., Ltd, priority 2019, dated 2025):
Structures can show the parent of a compound that is named as a salt.

Each molecule was assayed against PD-1/PD-L1 (Homo sapiens (Human), UniProt Q9NZQ7) (assay: PD-1/PD-L1 Binding Assay (Alphascreen)). Settings: numeric values.
PD-1/PD-L1, sequence (Q9NZQ7 19-238): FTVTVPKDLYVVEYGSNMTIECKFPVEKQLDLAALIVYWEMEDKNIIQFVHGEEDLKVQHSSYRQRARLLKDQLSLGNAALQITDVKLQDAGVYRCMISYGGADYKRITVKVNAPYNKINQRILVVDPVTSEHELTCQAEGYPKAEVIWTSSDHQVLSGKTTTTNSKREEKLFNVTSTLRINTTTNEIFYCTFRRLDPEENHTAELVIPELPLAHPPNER
Summary of the method: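 PD-1/PD-L1 binding detected by anti-6×His acceptor and streptavidin donor beads after 120 min in the dark at 25 °C. Beforehand, the two proteins were incubated 15 min at 25 °C with inhibitor at 0.015–300 nM (1% DMSO). IC50 comes from a log concentration–response curve.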
`Cc1c(-c2nc3cc(CN4CCC[C@H]4C(=O)O)c(OC(F)F)cc3o2)cccc1-c1cccc(NC(=O)c2ccc(CNCCO)cn2)c1Cl` [Example 302, ((2-(2′-chloro-3′-(5-(((2-hydroxyethyl)amino)methyl)picolinamido)-2-methyl-[1,1′-biphenyl]-3-yl)-6-(difluoromethoxy)benzo[d]oxazol-5-yl)methyl)-L-proline] was tested, and the IC50 was 0.29 nM. `Cc1c(-c2ccc(NC(=N)N)cc2)cccc1-c1cccc(-c2nc3cc(CN4CCC[C@H]4C(=O)O)c(OC(F)F)cc3o2)c1C` [Example 225, ((6-(difluoromethoxy)-2-(4″-guanidino-2,2′-dimethyl-[1,1′:3,1″-terphenyl]-3-yl)benzo[d]oxazol-5-yl)methyl)-L-proline] gave an IC50 of 2 nM. In the case of `Cc1c(-c2nc3cc(CN4CCC[C@H]4C(=O)O)c(OC(F)F)cc3o2)cccc1-c1cccc(-c2ccc(CNC[C@@H]3CCC(=O)N3)cc2)c1F` [Example 215, ((6-(difluoromethoxy)-2-(2′-fluoro-2-methyl-4″- (((((S)-5-oxopyrrolidin-2-yl)methyl)amino)methyl)-[1,1′:3′,1″- terphenyl]-3-yl)benzo[d]oxazol-5-yl)methyl)-L-proline], the IC50 is reported as 2.8 nM. Molecule `Cc1c(-c2nc3ccc(CN4CC(C)(C)C4)cc3o2)cccc1-c1cccc(-c2nc3cc(CN4CCC[C@H]4C(=O)O)c(OC(F)F)cc3o2)c1C` [Example 109, ((6-(difluoromethoxy)-2-(3′-(6-((3,3-dimethylazetidin-1-yl)methyl)benzo[d]oxazol-2-yl)-2,2′-dimethyl-[1,1′-biphenyl]-3-yl)benzo[d]oxazol-5-yl)methyl)-L-proline] has an IC50 of 1.6 nM. Work on `Cc1c(-c2nc3cc(CN4CC5COCC5C4)c(OC(F)F)cc3o2)cccc1-c1cccc(-c2nc3cc(CN4CCC[C@H]4C(=O)O)c(OC(F)F)cc3o2)c1C` (stereo partly drawn) [Example 55, ((6-(difluoromethoxy)-2-(3′-(6-(difluoromethoxy)-5-((tetrahydro-1H-furo[3,4-c]pyrrol-5(3H)-yl)methyl)benzo[d]oxazol-2-yl)-2,2′-dimethyl-[1,1′-biphenyl]-3-yl)benzo[d]oxazol-5-yl)methyl)-L-proline] yielded an IC50 of 0.57 nM. With `Cc1c(-c2cnc(CN3CCCC3)c(F)c2)cccc1-c1cccc(-c2nc3cc(CN4CCC[C@H]4C(=O)O)c(OC(F)F)cc3o2)c1C` [Example 265, ((6-(difluoromethoxy)-2-(3′-(5-fluoro-6-(pyrrolidin-1-ylmethyl)pyridin-3-yl)-2,2′-dimethyl-[1,1′-biphenyl]-3-yl)benzo[d]oxazol-5-yl)methyl)-L-proline] the IC50 was 0.73 nM. `Cc1c(-c2nc3cc(CN4CCC[C@H]4C(N)=O)c(OC(F)F)cc3o2)cccc1-c1cccc(-c2nc3cc(CN4CCC[C@H]4C(=O)O)c(OC(F)F)cc3o2)c1C` [Example 11, ((2-(3′-(5-(((S)-2-carbamoylpyrrolidin-1-yl)methyl)-6-(difluoromethoxy)benzo[d]oxazol-2-yl)-2,2′-dimethyl-[1,1′-biphenyl]-3-yl)-6-(difluoromethoxy)benzo[d]oxazol-5-yl)methyl)-L-proline] was tested, and the IC50 was 33 nM. With `Cc1c(-c2nc3cc(CN(C)CCO)c(OC(F)F)cc3o2)cccc1-c1cccc(-c2nc3cc(CN4CCC[C@H]4C(=O)O)c(OC(F)F)cc3o2)c1C` [Example 17, ((6-(difluoromethoxy)-2-(3′-(6-(difluoromethoxy)-5-(((2-hydroxyethyl)(methyl)amino)methyl)benzo[d]oxazol-2-yl)-2,2′-dimethyl-[1,1′-biphenyl]-3-yl)benzo[d]oxazol-5-yl)methyl)-L-proline] the IC50 was 1.2 nM. Molecule `COc1cc(-c2cccc(-c3cccc(-c4nc5cc(CN6CCC[C@H]6C(=O)O)c(OC(F)F)cc5o4)c3C)c2C)cc(OC)c1CN1CCCC1` [Example 254, ((6-(difluoromethoxy)-2-(3″,5″-dimethoxy-2,2′-dimethyl-4″-(pyrrolidin-1-ylmethyl)-[1,1′:3′,1″- terphenyl]-3-yl)benzo[d]oxazol-5-yl)methyl)-L-proline hydrochloride] has an IC50 of 16 nM. Work on `COc1cc(-c2cccc(-c3cccc(-c4nc5cc(CN6CCC[C@H]6C(=O)O)c(OC(F)F)cc5o4)c3C)c2C)cc(F)c1CN1CCCC1` [Example 235, ((6-(difluoromethoxy)-2-(3″-fluoro-5″- methoxy-2,2′-dimethyl-4″-(pyrrolidin-1-ylmethyl)-[1,1′:3′,1″-terphenyl]-3-yl)benzo[d]oxazol-5-yl)methyl)-L-proline] yielded an IC50 of 1.8 nM. Work on `Cc1c(-c2nc3cc(CN4CCC[C@H]4C(=O)O)c(OC(F)F)cc3o2)cccc1-c1cccc(-c2nc3cc(CN4CCCC4)c(OC(F)F)cc3o2)c1F` [Example 6, ((6-(difluoromethoxy)-2-(3′-(6-(difluoromethoxy)-5-(pyrrolidin-1-ylmethyl)benzo[d]oxazol-2-yl)-2′-fluoro-2-methyl-[1,1′-biphenyl]-3-yl)benzo[d]oxazol-5-yl)methyl)-L-proline] yielded an IC50 of 4.3 nM. With `Cc1c(-c2nc3cc(CN4CCC[C@H]4C(=O)O)c(OC(F)F)cc3o2)cccc1-c1cccc(-c2nc3cc(CN4CCC45COC5)c(OC(F)F)cc3o2)c1C` [Example 39, ((2-(3′-(5-((6-oxa-1-azaspiro[3.3]heptan-1-yl)methyl)-6-(difluoromethoxy)benzo[d]oxazol-2-yl)-2,2′-dimethyl-[1,1′-biphenyl]-3-yl)-6-(difluoromethoxy)benzo[d]oxazol-5-yl)methyl)-L-proline] the IC50 was 2.4 nM.

Same assay, conditions: range symbols
Work on `Cc1c(-c2nc3cc(CN4CCC[C@H]4C(=O)O)c(OC(F)F)cc3o2)cccc1-c1cccc(-c2nc3cc(CN4CCC(F)C4)cc(C(F)(F)F)c3o2)c1C` (stereo partly drawn) [Example 166, ((6-(difluoromethoxy)-2-(3′-(5-((3-fluoropyrrolidin-1-yl)methyl)-7-(trifluoromethyl)benzo[d]oxazol-2-yl)-2,2′-dimethyl-[1,1′-biphenyl]-3-yl)benzo[d]oxazol-5-yl)methyl)-L-proline] yielded an IC50 of 5 to 50 nM. For `COc1nc(-c2cccc(-c3cccc(-c4nc5cc(CN6CCC[C@@H]6C(=O)O)c(OC(F)F)cc5o4)c3C)c2C)ccc1CN1CC[C@H](C)C1` [Example 273, ((6-(difluoromethoxy)-2-(3′-(6-methoxy-5-(((S)-3-methylpyrrolidin-1-yl)methyl)pyridin-2-yl)-2,2′-dimethyl-[1,1′-biphenyl]-3-yl)benzo[d]oxazol-5-yl)methyl)-D-proline], the IC50 was 5 to 50 nM. Molecule `Cc1c(-c2nc3cc(CN4CCC[C@H]4C(=O)O)c(OC(F)F)cc3o2)cccc1-c1cccc(-c2nc3cc(CN4CC(N(C)C)C4)cc(C#N)c3o2)c1C` [Example 134, ((2-(3′-(7-cyano-5-((3-(dimethylamino)azetidin-1-yl)methyl)benzo[d]oxazol-2-yl)-2,2′-dimethyl-[1,1′-biphenyl]-3-yl)-6-(difluoromethoxy)benzo[d]oxazol-5-yl)methyl)-L-proline] has an IC50 of 0.1 to 5 nM. `Cc1c(-c2ccc(CN3CCC(NC(N)=O)C3)c(F)c2)cccc1-c1cccc(-c2nc3cc(CN4CCC[C@H]4C(=O)O)c(OC(F)F)cc3o2)c1C` (stereo partly drawn) [Example 260, ((6-(difluoromethoxy)-2-(3″-fluoro-2,2′-dimethyl-4″-((3-ureidopyrrolidin-1-yl)methyl)-[1,1′:3′,1″-terphenyl]-3-yl)benzo[d]oxazol-5-yl)methyl)-L-proline] gave an IC50 of 5 to 50 nM. Molecule `Cc1c(COc2cc(OCc3cccc(C#N)c3)c(CN3CCC[C@H]3C(=O)O)cc2Cl)cccc1-c1cccc(-c2nc3cc(CN4CCC[C@H]4C(=O)O)c(OC(F)F)cc3o2)c1C` [Example 211] has an IC50 of 0.1 to 5 nM. In the case of `Cc1c(-c2nc3cc(CN4CC(C)(C#N)C4)c(OC(F)F)cc3o2)cccc1-c1cccc(-c2nc3cc(CN4CCC[C@H]4C(=O)O)c(OC(F)F)cc3o2)c1C` [Example 79, ((2-(3′-(5-((3-cyano-3-methylazetidin-1-yl)methyl)-6-(difluoromethoxy)benzo[d]oxazol-2-yl)-2,2′-dimethyl-[1,1′-biphenyl]-3-yl)-6-(difluoromethoxy)benzo[d]oxazol-5-yl)methyl)-L-proline], the IC50 is reported as 0.1 to 5 nM. Work on `Cc1c(-c2nc3cc(CN4CCC[C@H]4C(=O)O)c(OC(F)F)cc3o2)cccc1-c1cccc(-c2nc3cc(CN4CC[C@@H](CF)C4)cc(C#N)c3o2)c1C` [Example 168, ((2-(3′-(7-cyano-5-(((R)-3-(fluoromethyl)pyrrolidin-1-yl)methyl)benzo[d]oxazol-2-yl)-2,2′-dimethyl-[1,1′-biphenyl]-3-yl)-6-(difluoromethoxy)benzo[d]oxazol-5-yl)methyl)-L-proline] yielded an IC50 of 0.1 to 5 nM. `CNCc1cc2nc(-c3cccc(-c4cccc(-c5nc6cc(CN7CCC[C@H]7C(=O)O)c(OC(F)F)cc6o5)c4C)c3C)oc2cc1OCc1cccc(S(C)(=O)=O)c1` [Example 124, ((6-(difluoromethoxy)-2-(2,2′-dimethyl-3′-(5-((methylamino)methyl)-6-((3-(methylsulfonyl)benzyl)oxy)benzo[d]oxazol-2-yl)-[1,1′-biphenyl]-3-yl)benzo[d]oxazol-5-yl)methyl)-L-proline] was tested, and the IC50 was 0.1 to 5 nM. Work on `CC[C@@H]1CCN1Cc1cc2nc(-c3cccc(-c4cccc(-c5nc6cc(CN7CCC[C@H]7C(=O)O)c(OC(F)F)cc6o5)c4C)c3C)oc2cc1OC(F)F` [Example 42, ((6-(difluoromethoxy)-2-(3′-(6-(difluoromethoxy)-5-(((R)-2-ethylazetidin-1-yl)methyl)benzo[d]oxazol-2-yl)-2,2′-dimethyl-[1,1′-biphenyl]-3-yl)benzo[d]oxazol-5-yl)methyl)-L-proline] yielded an IC50 of 0.1 to 5 nM. `Cc1c(-c2nc3cc(CN4CCCC4)cc(C(F)(F)F)c3[nH]2)cccc1-c1cccc(-c2nc3cc(CN4CCC[C@H]4C(=O)O)c(OC(F)F)cc3o2)c1C` [Example 301, ((6-(difluoromethoxy)-2-(2,2′-dimethyl-3′-(5-(pyrrolidin-1-ylmethyl)-7-(trifluoromethyl)-1H-benzo[d]imidazol-2-yl)-[1,1′-biphenyl]-3-yl)benzo[d]oxazol-5-yl)methyl)-L-proline] was tested, and the IC50 was 5 to 50 nM. `Cc1c(-c2nc3cc(CN4CCC[C@H]4C(=O)O)c(OC(F)F)cc3o2)cccc1-c1cccc(-c2nc3cc(CN(C(C)CO)C(C)CO)cc(C#N)c3o2)c1C` (stereo partly drawn) [Example 147, ((2-(3′-(5-((bis(1-hydroxypropan-2-yl)amino)methyl)-7-cyanobenzo[d]oxazol-2-yl)-2,2′-dimethyl-[1,1′-biphenyl]-3-yl)-6-(difluoromethoxy)benzo[d]oxazol-5-yl)methyl)-L-proline] gave an IC50 of 0.1 to 5 nM.
